Data as given in patent publication US5859026A, “Quinoline carboxylic acid” (priority 1995, dated 1999).
Values after ≈ are worked out from the molar mass of the structure shown.

Tests used:
male ICR mice = assay: Induction of convulsions, intraperitoneal (i.p.) administration; type: in vivo, mouse; settings: 100 mg/kg i.p., 30 minutes after oral fenbufen 100 mg/kg
Text: 4. The induction of convulsions
1) Intraperitoneal (i.p.) administration

Male Hartley guinea pigs = assay: Phototoxicity; type: in vivo, guinea pig; settings: 10 mg/kg intravenous, UV exposure 90 minutes, observed 24 hours after irradiation
Procedure: Male Hartley guinea pigs were intravenously administered with test compounds at a dose of 10 mg/kg, and then immediately exposed to WVA on their backs for 90 minutes. Erythemas on the UV irradiated skin were observed 24 hours after the irradiation.

[1] = test system: Chinese hamster lung cell line (CHL cell); assay: Chromosomal aberration test; type: cell-based; settings: 100 μg/ml, 6 hours treatment at 37° C., then 18 hours in fresh medium
Procedure: 2. Chromosomal aberration test
The experiments were carried out using a Chinese hamster lung cell line (CHL cell). The test compounds prepared were added to cultured cells, and cultivation was continued for 6 hours at 37° C. in 5% CO2. 2-(2-furyl)-3-(5-nitro-2-furyl) acrylamide was used as a positive control. After the cultivation for 6 hours, the cells were washed and added with fresh medium, and then cultivation was further continued for 18 hours. Colcemide solution was added to the culture 2 hours before the completion of the cultivation, and the chromosomal specimens were prepared after the cultivation was completed. Incidence rates of aberration cells were measured at the treatments with 100 μg/ml of the test compounds.

E. colacae 963 = assay: Antibacterial activity (MIC), standard strain; type: cell-based; settings: Enterobacter cloacae; standard strain E. colacae 963, Gram -, 10^6 viable cells per ml; read-out: minimum inhibitory concentration (MIC)
Procedure: (§1) 1. Antibacterial spectrum against standard strains and clinically isolated strains
Antibacterial activities (minimum inhibitory concentration: MIC) were determined according to the standard method of the Japan Society of Chemotherapy (Chemotherapy (Tokyo), 29 (1), 76, 1981) by using standard strains and strains isolated from patients of infectious disease (clinically isolated strains) and applying 10^6 viable cells per ml. […].

A. calcoaceticus HNR916 = assay: Antibacterial activity (MIC), clinically isolated strain; type: cell-based; settings: Acinetobacter calcoaceticus; clinical isolate A. calcoaceticus HNR916, Gram -, 10^6 viable cells per ml; read-out: minimum inhibitory concentration (MIC)
Text: as §1

E. faecalis HPC984 = assay: as above; type: cell-based; settings: Enterococcus faecalis; clinical isolate E. faecalis HPC984, Gram +, 10^6 viable cells per ml; read-out: minimum inhibitory concentration (MIC)
Text: as §1

K. pneumoniae HNR858 = assay: as above; type: cell-based; settings: Klebsiella pneumoniae; clinical isolate K. pneumoniae HNR858, Gram -, 10^6 viable cells per ml; read-out: minimum inhibitory concentration (MIC)
Text: as §1

E. faecalis HPC975 = assay: as above; type: cell-based; settings: Enterococcus faecalis; clinical isolate E. faecalis HPC975, Gram +, 10^6 viable cells per ml; read-out: minimum inhibitory concentration (MIC)
Text: as §1

S. marcescens HNR1792 = assay: as above; type: cell-based; settings: Serratia marcescens; clinical isolate S. marcescens HNR1792, Gram -, 10^6 viable cells per ml; read-out: minimum inhibitory concentration (MIC)
Text: as §1

E. cloacae HNR1941 = assay: as above; type: cell-based; settings: Enterobacter cloacae; clinical isolate E. cloacae HNR1941, Gram -, 10^6 viable cells per ml; read-out: minimum inhibitory concentration (MIC)
Text: as §1

S. marcescens HNR1544 = assay: as above; type: cell-based; settings: Serratia marcescens; clinical isolate S. marcescens HNR1544, Gram -, 10^6 viable cells per ml; read-out: minimum inhibitory concentration (MIC)
Text: as §1

E. faecalis HPC948 = assay: as above; type: cell-based; settings: Enterococcus faecalis; clinical isolate E. faecalis HPC948, Gram +, 10^6 viable cells per ml; read-out: minimum inhibitory concentration (MIC)
Text: as §1

S. aureusHPC292 = assay: as above; type: cell-based; settings: Staphylococcus aureus; clinical isolate S. aureus HPC292, Gram +, 10^6 viable cells per ml; read-out: minimum inhibitory concentration (MIC)
Text: as §1

S. aureus HPC308 = assay: as above; type: cell-based; settings: Staphylococcus aureus; clinical isolate S. aureus HPC308, Gram +, 10^6 viable cells per ml; read-out: minimum inhibitory concentration (MIC)
Text: as §1

E. cloacae HNR1939 = assay: as above; type: cell-based; settings: Enterobacter cloacae; clinical isolate E. cloacae HNR1939, Gram -, 10^6 viable cells per ml; read-out: minimum inhibitory concentration (MIC)
Text: as §1

S. aureus HPC527 = assay: as above; type: cell-based; settings: Staphylococcus aureus; clinical isolate S. aureus HPC527, Gram +, 10^6 viable cells per ml; read-out: minimum inhibitory concentration (MIC)
Text: as §1

E. cloacae HNR1946 = assay: as above; type: cell-based; settings: Enterobacter cloacae; clinical isolate E. cloacae HNR1946, Gram -, 10^6 viable cells per ml; read-out: minimum inhibitory concentration (MIC)
Text: as §1

A. calcoaceticus HNR904 = assay: as above; type: cell-based; settings: Acinetobacter calcoaceticus; clinical isolate A. calcoaceticus HNR904, Gram -, 10^6 viable cells per ml; read-out: minimum inhibitory concentration (MIC)
Text: as §1

K. pneumoniae HNR869 = assay: as above; type: cell-based; settings: Klebsiella pneumoniae; clinical isolate K. pneumoniae HNR869, Gram -, 10^6 viable cells per ml; read-out: minimum inhibitory concentration (MIC)
Text: as §1

K. pneumoniae PCI-602 = assay: Antibacterial activity (MIC), standard strain; type: cell-based; settings: Klebsiella pneumoniae, PCI602; standard strain K. pneumoniae PCI-602, Gram -, 10^6 viable cells per ml; read-out: minimum inhibitory concentration (MIC)
Text: as §1

S. aureus FDA 209P JC-1 = assay: Antibacterial activity (MIC), standard strain; type: cell-based; settings: Staphylococcus aureus, FDA209P; standard strain S. aureus FDA 209P JC-1, Gram +, 10^6 viable cells per ml; read-out: minimum inhibitory concentration (MIC)
Text: as §1

E. coli NIHJ JC-2 = assay: Antibacterial activity (MIC), standard strain; type: cell-based; settings: Escherichia coli, NIHJJC2; standard strain E. coli NIHJ JC-2, Gram -, 10^6 viable cells per ml; read-out: minimum inhibitory concentration (MIC)
Text: as §1

S. marcescens IAM 1184 = assay: Antibacterial activity (MIC), standard strain; type: cell-based; settings: Serratia marcescens, IAM1184; standard strain S. marcescens IAM 1184, Gram -, 10^6 viable cells per ml; read-out: minimum inhibitory concentration (MIC)
Text: as §1

A. calcoaceticus HNR939 = assay: Antibacterial activity (MIC), clinically isolated strain; type: cell-based; settings: Acinetobacter calcoaceticus; clinical isolate A. calcoaceticus HNR939, Gram -, 10^6 viable cells per ml; read-out: minimum inhibitory concentration (MIC)
Text: as §1

K. pneumoniae HNR828 = assay: as above; type: cell-based; settings: Klebsiella pneumoniae; clinical isolate K. pneumoniae HNR828, Gram -, 10^6 viable cells per ml; read-out: minimum inhibitory concentration (MIC)
Text: as §1

S. marcescens HNR1767 = assay: as above; type: cell-based; settings: Serratia marcescens; clinical isolate S. marcescens HNR1767, Gram -, 10^6 viable cells per ml; read-out: minimum inhibitory concentration (MIC)
Text: as §1

| MIC (E. colacae 963) [µg/mL] | MIC (A. calcoaceticus HNR916) [µg/mL] | MIC (E. faecalis HPC984) [µg/mL] | MIC (K. pneumoniae HNR858) [µg/mL] | MIC (E. faecalis HPC975) [µg/mL] | MIC (S. marcescens HNR1792) [µg/mL] | MIC (E. cloacae HNR1941) [µg/mL] | MIC (S. marcescens HNR1544) [µg/mL] | MIC (E. faecalis HPC948) [µg/mL] | MIC (S. aureusHPC292) [µg/mL] | MIC (S. aureus HPC308) [µg/mL] | MIC (E. cloacae HNR1939) [µg/mL] | MIC (S. aureus HPC527) [µg/mL] | MIC (E. cloacae HNR1946) [µg/mL] | MIC (A. calcoaceticus HNR904) [µg/mL] | MIC (K. pneumoniae HNR869) [µg/mL] | MIC (K. pneumoniae PCI-602) [µg/mL] | MIC (S. aureus FDA 209P JC-1) [µg/mL] | MIC (E. coli NIHJ JC-2) [µg/mL] | MIC (S. marcescens IAM 1184) [µg/mL] | Structure (SMILES) | further results |
| --- | --- | --- | --- | --- | --- | --- | --- | --- | --- | --- | --- | --- | --- | --- | --- | --- | --- | --- | --- | --- | --- |
| 0.012 (≈ 0.032 µM) | 0.006 (≈ 0.016 µM) | 0.05 (≈ 0.134 µM) | 0.1 (≈ 0.267 µM) | 0.78 (≈ 2.08 µM) | 1.56 (≈ 4.17 µM) | 3.13 (≈ 8.36 µM) | 0.025 (≈ 0.0668 µM) | 0.1 (≈ 0.267 µM) | 0.78 (≈ 2.08 µM) | 0.2 (≈ 0.534 µM) | 0.1 (≈ 0.267 µM) | 0.006 (≈ 0.016 µM) | 0.1 (≈ 0.267 µM) | 1.56 (≈ 4.17 µM) | 0.78 (≈ 2.08 µM) | 0.0008 (≈ 0.00214 µM) | 0.006 (≈ 0.016 µM) | 0.006 (≈ 0.016 µM) | 0.05 (≈ 0.134 µM) | Cc1c(N2C[C@@H](N)[C@@H](C)C2)c(F)c(N)c2c(=O)c(C(=O)O)cn(C3CC3)c12 [Compound 1, 5-amino-7-((3S,4S)-3-amino-4-methyl-1-pyrrolidinyl)-1-cyclopropyl-6-fluoro-1,4-dihydro-8-methyl-4-oxoquinoline-3-carboxylic acid] | Induction of convulsions, i.p. (in words) (male ICR mice): did not induce convulsions; Induction of convulsion, i.p. (number of mice with convulsions) (male ICR mice; animals with convulsions/animals tested): 0/6; Phototoxicity (in words) (Male Hartley guinea pigs): induced no phototoxicity; Phototoxicity (number of guinea pigs with erythemas) (Male Hartley guinea pigs; animals with erythemas/animals tested): 0/5; incidence rate of the aberration cells [1]: less than 10% |
| 0.025 (≈ 0.0644 µM) | 0.012 (≈ 0.0309 µM) | 0.05 (≈ 0.129 µM) | 0.2 (≈ 0.515 µM) | 0.78 (≈ 2.01 µM) | 1.56 (≈ 4.02 µM) | 6.25 (≈ 16.1 µM) | 0.05 (≈ 0.129 µM) | 0.2 (≈ 0.515 µM) | 0.78 (≈ 2.01 µM) | 0.1 (≈ 0.257 µM) | 0.2 (≈ 0.515 µM) | 0.006 (≈ 0.0154 µM) | 0.2 (≈ 0.515 µM) | 3.13 (≈ 8.06 µM) | 1.56 (≈ 4.02 µM) | ≤ 0.0015 | 0.006 (≈ 0.0154 µM) | 0.012 (≈ 0.0309 µM) | 0.1 (≈ 0.257 µM) | CC[C@H]1CN(c2c(F)c(N)c3c(=O)c(C(=O)O)cn(C4CC4)c3c2C)C[C@H]1N [Compound 2, 5-amino-7-((3S,4S)-3-amino-4-ethyl-1-pyrrolidinyl)-1-cyclopropyl-6-fluoro-1,4-dihydro-8-methyl-4-oxoquinoline-3-carboxylic acid] | MIC (A. calcoaceticus HNR939): 0.2 µg/mL (≈ 0.515 µM); MIC (K. pneumoniae HNR828): 3.13 µg/mL (≈ 8.06 µM); MIC (S. marcescens HNR1767): 12.5 µg/mL (≈ 32.2 µM) |
